Measured values as given in publication PMC3914891, “Pentacyclic Nitrofurans with In Vivo Efficacy and Activity against Nonreplicating Mycobacterium tuberculosis” (PLoS ONE, 2014).
In brackets after ≈: the same amount, converted by molar mass. Like-named read-outs stand apart in the source and are kept apart here.

Legend:
M. fortuitum (ATCC 6841) = experiment: MIC, non-tuberculosis mycobacteria: M. fortuitum; format: cell-based; conditions: Mycolicibacterium fortuitum, ATCC6841, 72 h; broth dilution, visual inspection, 3 days; read-out: Minimum Inhibitory Concentration, M. fortuitum
M. kansasii (ATCC 12478) = experiment: MIC, non-tuberculosis mycobacteria: M. kansasii; format: cell-based; conditions: Mycobacterium kansasii, ATCC12478, 168 h; broth dilution, visual inspection, 7 days; read-out: Minimum Inhibitory Concentration, M. kansasii
[1] = system: M. abscessus (ATCC 19977); experiment: MIC, non-tuberculosis mycobacteria: M. abscessus; format: cell-based; conditions: Mycobacteroides abscessus, ATCC19977, 72 h, read-out: Minimum Inhibitory Concentration, M. abscessus
M. avium (ATCC 25291) = experiment: MIC, non-tuberculosis mycobacteria: M. avium; format: cell-based; conditions: Mycobacterium avium, ATCC25291, 168 h; broth dilution, visual inspection, 7 days; read-out: Minimum Inhibitory Concentration, M. avium
M. tuberculosis = experiment: MIC determination, microbroth dilution, M. tuberculosis; format: cell-based, Mycobacterium tuberculosis; conditions: Mycobacterium tuberculosis
[2] = system: Burkholderia cepacia (ATCC 25416); experiment: MIC, spectrum of activity: B.c.; format: cell-based; conditions: ATCC25416, read-out: Minimum Inhibitory Concentration, B.c.
E. coli K12 ∆tolC = format: cell-based; conditions: E. coli K12 ∆tolC (efflux pump deficient)
[3] = rats; IV 10 mg/kg and oral 100 mg/kg
[4] = system: Staphylococcus aureus (ATCC 29213); experiment: MIC, spectrum of activity: S.a.; format: cell-based; conditions: ATCC29213, read-out: Minimum Inhibitory Concentration, S.a
[5] = male, Sprague-Dawley, rat, in vivo
[6] = system: Bacillus subtilis (ATCC 23857); experiment: MIC, spectrum of activity: B.s.; format: cell-based; conditions: ATCC23857, read-out: Minimum Inhibitory Concentration, B.s.
[7] = system: Staphylococcus aureus (NRS70); experiment: MIC, spectrum of activity: MRSA; format: cell-based; conditions: read-out: Minimum Inhibitory Concentration, MRSA
[8] = system: Streptococcus pneumoniae (R6); experiment: MIC, spectrum of activity: S.pn; format: cell-based; conditions: read-out: Minimum Inhibitory Concentration, S. Pn.
in vivo = conditions: male, Sprague-Dawley, rat
[9] = system: Enterococcus faecalis (ATCC 33186); experiment: MIC, spectrum of activity: E.f.; format: cell-based; conditions: ATCC33186, read-out: Minimum Inhibitory Concentration, E.f.
in vitro [10] = conditions: mouse, plasma
[11] = In vitro cytotoxicity against Vero cells; conditions: African green monkey, Vero cells (kidney epithelial cells, ATCC CCL-81)
Vero cells = experiment: In vitro cytotoxicity against Vero cells
[12] = system: Escherichia coli (ATCC 700926); experiment: MIC, spectrum of activity: E.c.; format: cell-based; conditions: ATCC700926, read-out: Minimum Inhibitory Concentration, E.c.
in vitro [13] = conditions: mouse, microsomes
[14] = system: Stenotrophomonas maltophilia (ATCC 13637); experiment: MIC, spectrum of activity: S.m.; format: cell-based; conditions: ATCC13637, read-out: Minimum Inhibitory Concentration, S.m.
[15] = system: Bacillus anthracis sterne 34F2; experiment: microbe, parasite or virus in culture; format: cell-based; conditions: STERNE34F2, read-out: Minimum Inhibitory Concentration, B.a.
physchem = conditions: pH 7.4, aqueous buffer
[16] = system: Streptococcus pyogenes (ATCC 700294); experiment: MIC, spectrum of activity: S.py; format: cell-based; conditions: ATCC700294, read-out: Minimum Inhibitory Concentration, S. Py.
[17] = system: M. tuberculosis strain H37Rv; experiment: Checkerboard synergy assay; format: cell-based, Mycobacterium tuberculosis; conditions: for MIC: Mycobacterium tuberculosis, H37RV, 168 h, read-out: MIC Alone
M. tuberculosis H37Rv = experiment: Minimum bactericidal concentration determination; format: cell-based, Mycobacterium tuberculosis

| SMILES | MIC (M. tuberculosis; 168 h, read-out: M. tb. MIC) [µg/mL] | MIC [2] [µg/mL] | Minimum Inhibitory Concentration, E.c. ΔtolC (E. coli K12 ∆tolC) [µg/mL] | MIC [4] [µg/mL] | MIC [6] [µg/mL] | MIC [7] [µg/mL] | MIC [8] [µg/mL] | MIC [9] [µg/mL] | fraction unbound (in vitro [10]) | IC50 [11] [µg/mL] | Selective Index (Cytox/MIC) (Vero cells) | MIC [12] [µg/mL] | half-life (in vitro [13]) [h] | MIC [14] [µg/mL] | MIC [15] [µg/mL] | solubility (physchem) [µg/mL] | MIC [16] [µg/mL] | FICI with 9a [17] | MIC in presence of 9a [17] [µg/mL] | Type of Interaction [17] | also measured |
| --- | --- | --- | --- | --- | --- | --- | --- | --- | --- | --- | --- | --- | --- | --- | --- | --- | --- | --- | --- | --- | --- |
| NCC[C@H](O)C(=O)N[C@@H]1C[C@H](N)[C@@H](O[C@H]2O[C@H](CN)[C@@H](O)[C@H](O)[C@H]2O)[C@H](O)[C@H]1O[C@H]1O[C@H](CO)[C@@H](O)[C@H](N)[C@H]1O [Amikacin] |  |  |  |  |  |  |  |  |  |  |  |  |  |  |  |  |  |  |  |  | MIC (M. fortuitum (ATCC 6841)): 0.78 µg/mL (≈ 1.33 µM); MIC (M. kansasii (ATCC 12478)): 6.25 to 12.5 µg/mL (≈ 10.7 to 21.3 µM); MIC [1]: 3.13 to 6.25 µg/mL (≈ 5.34 to 10.7 µM); MIC (M. avium (ATCC 25291)): 12.5 µg/mL (≈ 21.3 µM) |
| O=[N+]([O-])c1ccc(C2=NOC(c3ccc(N4CCC(Oc5ccc(OC(F)(F)F)cc5)CC4)nc3)C2)o1 (stereo not shown) [Compound 9b, 3-(5-Nitrofuran-2-yl)-5-(6-(4-(4-(trifluoromethoxy)phenoxy)piperidin-1-yl)pyridin-3-yl)-4,5-dihydroisoxazole] | 0.006 | 100 (≈ 193 µM) | >200 | 200 (≈ 386 µM) | > 200 | 200 (≈ 386 µM) | 200 (≈ 386 µM) | > 200 | 0.001 | 4 (≈ 7.72 µM) | 667 | > 200 | 6.91 | 100 (≈ 193 µM) | 50 (≈ 96.4 µM) | 1.6 (≈ 3.09 µM) | 200 (≈ 386 µM) |  |  |  | Toxicity by intravenous and oral dosing [3]: non-toxic; fe (fraction excreted unchanged in urine) ([5]; iv, 10 mg/kg): 0.01 (0.00) %; Cmin,24 h ([5]; po, 100 mg/kg): 0.11 (0.11) mg/L; Vd (in vivo; iv, 10 mg/kg): 1.53 L/kg; clearance (in vivo; iv, 10 mg/kg): 7 mL/min/kg; half-life (in vivo; iv, 10 mg/kg): 2.48 h; AUC(0-inf) (in vivo; po, 100 mg/kg): 15100 ng·h/mL; Cmax (in vivo; po, 100 mg/kg): 2310 ng/mL; bioavailability (in vivo; po, 100 mg/kg): 8% |
| O=[N+]([O-])c1ccc(C2=NOC(c3ccc(N4CCC(Oc5ccc(F)cc5)CC4)cc3)C2)o1 (stereo not shown) [Compound 9d, 5-(4-(4-(4-Fluorophenoxy)piperidin-1-yl)phenyl)-3-(5-nitrofuran-2-yl)-4,5-dihydroisoxazole] | 0.012 | 50 (≈ 111 µM) | >200 | 6.3 (≈ 14 µM) | 100 (≈ 222 µM) | 100 (≈ 222 µM) | > 200 | > 200 | 0.009 | 14.7 (≈ 32.6 µM) | 1225 | > 200 | 1.43 | 6.3 (≈ 14 µM) | > 200 | 0.7 (≈ 1.55 µM) | > 200 |  |  |  |  |
| O=[N+]([O-])c1ccc(C2=NOC(c3ccc(N4CCC(Oc5ccc(F)cc5)CC4)nc3)C2)o1 (stereo not shown) [Compound 9e, 5-(6-(4-(4-Fluorophenoxy)piperidin-1-yl)pyridin-3-yl)-3-(5-nitrofuran-2-yl)-4,5-dihydroisoxazole] | 0.002 | 50 (≈ 111 µM) | >200 | > 200 | 50 (≈ 111 µM) | 50 (≈ 111 µM) | > 200 | 50 (≈ 111 µM) | 0.002 | 7.5 (≈ 16.6 µM) | 3750 | > 200 | 1.93 | 6.3 (≈ 13.9 µM) | > 200 | 2.2 (≈ 4.86 µM) | > 200 |  |  |  |  |
| O=[N+]([O-])c1ccc(C2=NOC(c3ccc(N4CCC(Oc5ccc(F)cc5)CC4)c(F)c3)C2)o1 (stereo not shown) [Compound 9f, 5-(3-Fluoro-4-(4-(4-fluorophenoxy)piperidin-1-yl)phenyl)-3-(5-nitrofuran-2-yl)-4,5-dihydroisoxazole] | 0.012 | 12.5 (≈ 26.6 µM) | 12.5 | 3.13 (≈ 6.67 µM) | 25 (≈ 53.3 µM) | 12.5 (≈ 26.6 µM) | 25 (≈ 53.3 µM) | 6.3 (≈ 13.4 µM) | 0.002 | 8 (≈ 17 µM) | 667 | > 200 | 1.74 | > 200 | > 200 | 0.8 (≈ 1.7 µM) | 50 (≈ 107 µM) |  |  |  |  |
| CC[C@@H](CO)NCCN[C@@H](CC)CO [Ethambutol] |  |  |  |  |  |  |  |  |  |  |  |  |  |  |  |  |  | 0.75–1.00 | 0.8 | Indifference (key: Synergy: synergy (FICI ≤0.5); Indifference: indifference (FICI >0.5–4.0); Antagonism: antagonism (FICI >4.0)) | MIC [17]: 1.6 µg/mL |
| CC(=O)NC[C@H]1CN(c2ccc(N3CCOCC3)c(F)c2)C(=O)O1 [Linezolid] |  |  |  |  |  |  |  |  |  |  |  |  |  |  |  |  |  | 1.00 | 0.8 | Indifference (key: Synergy: synergy (FICI ≤0.5); Indifference: indifference (FICI >0.5–4.0); Antagonism: antagonism (FICI >4.0)) | MIC [17]: 1.6 µg/mL |
| C[C@]1(COc2ccc(N3CCC(Oc4ccc(OC(F)(F)F)cc4)CC3)cc2)Cn2cc([N+](=O)[O-])nc2O1 [OPC-67683] | 0.01 |  |  |  |  |  |  |  | 0.002 | 107 (≈ 200 µM) |  |  | 27.2 |  |  |  |  |  |  |  | MIC (M. tuberculosis; M. tuberculosis, […], read-out: MIC): 0.019 µM; MBC (M. tuberculosis H37Rv): >3; Classification (M. tuberculosis H37Rv; cidal or static from MBC versus MIC): Static (static (MBC/MIC >4)) |
| [H]/N=C(/N)N[C@H]1[C@H](O)[C@@H](O)[C@H](O[C@@H]2O[C@@H](C)[C@](O)(C=O)[C@H]2O[C@@H]2O[C@@H](CO)[C@H](O)[C@@H](O)[C@@H]2NC)[C@@H](N/C(N)=N\[H])[C@@H]1O [Streptomycin] |  |  |  |  |  |  |  |  |  |  |  |  |  |  |  |  |  | 0.75 | 0.4 to 0.8 | Indifference (key: Synergy: synergy (FICI ≤0.5); Indifference: indifference (FICI >0.5–4.0); Antagonism: antagonism (FICI >4.0)) | Classification (M. tuberculosis H37Rv): Cidal (key: Cidal: cidal (MBC/MIC ≤4); Static: static (MBC/MIC >4)); MBC (M. tuberculosis H37Rv): 3.13–6.25; MBC/MIC (M. tuberculosis H37Rv): ≤ 4; MIC [17]: 1.6 µg/mL |
